Assay in all cases: DTP human tumour cell line panel, 48 h
The test system of assay [1] is CAKI-1 renal.
Assay [2] deals with HCT-116 colon.
Assay [3] concerns HL-60(TB) leukemia.
For assay [4], the system named is HOP-92 NSCLC.
Assay [5] has as its system LOX IMVI melanoma.
The test system of assay [6] is M14 melanoma.
Assay [7] has as its system MDA-MB-231 breast.
For assay [8], the system named is MDA-N.
Assay [9] deals with NCI-H226 lung.
Assay [10] has as its system RPMI-8226 leukemia.
The subject of assay [11] is RXF 393 renal.
Assay [12] deals with SR leukemia.
Assay [13] deals with UO-31 renal.

For 10 compounds, TGI and GI50 results are on record in PubChem BioAssay (NCI).

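Interpolation was linear, between the two tested concentrations surrounding the appropriate level; five concentrations were tested over 48 hours in 96-well plates. At the GI50, growth is halved. Definition used: TGI = concentration required for complete inhibition of growth.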 Where a SMILES comes first, the peptide text is derived from it. The star is where a group is joined. Cbz = O=C(OCc1ccccc1)*; Boc = CC(C)(C)OC(=O)*; tBu = CC(C)(C)*

For the compound `CN(C)CCCN1c2ccccc2Sc2cnccc21`, the TGI in assay [1], in [2], in assay [3], in assay [4], in assay [5] and in [6] was > 100 µM each time. For the same compound, the TGI in [7], in [8], in assay [9], in [10], in assay [11] and in assay [12] was > 100 µM each time. The TGI in [13] is > 100 µM.
With `O=C1C(Cl)C(c2cccc(Cl)c2)N1c1ccc(-n2c(=S)[nH]c3ccccc3c2=O)cc1` (centres undefined), the TGI in assay [1] is > 100 µM; in assay [2], 85.3 µM; in [3], 52.1 µM; in assay [4] it was 94.5 µM; in [5] it was 42.5 µM; in [6] it was 58.7 µM. In addition, the TGI was 74.3 µM in assay [7]; 54.7 µM in assay [8]; 73.8 µM in [9]; 55.6 µM in assay [10]; 29 µM in assay [11]; 30 µM in assay [12]. The compound further registered a TGI in assay [13] of 49 µM.
As for `Cc1[nH]n(C2=NCCN2)c(=O)c1Cc1ccccc1`, the TGI in assay [1], in assay [2], in [3], in [4], in assay [5] and in [6] was > 100 µM each time. Moreover, the TGI in assay [7], in assay [8], in [9], in assay [10], in assay [11] and in assay [12] was > 100 µM in each case. Moreover, the TGI in assay [13] was > 100 µM.
Regarding `COC/C=C\[C@]1(O)CCCC[C@@H]1CC(OC)OC`, the TGI is > 100 µM in [1]; 81.8 µM in assay [3]; > 100 µM in assay [4]; > 100 µM in [5]; > 100 µM in assay [6]; > 100 µM in assay [7]. The TGI in assay [8], in assay [9], in [10], in assay [11], in assay [12] and in [13] was > 100 µM each time.
With `CC(OC(C)(C)C)C(NC(=O)C(CCCCNC(=O)OC(C)(C)C)NC(=O)C(Cc1c[nH]c2ccccc12)NC(=O)C(Cc1ccccc1)NC(=O)OCc1ccccc1)C(=O)NC(Cc1ccccc1)C(=O)O` (centres undefined) (Cbz-FWK(Boc)T(tBu)F-OH; configuration not given here), the TGI in assay [1], in [2], in assay [3], in assay [4], in [5] and in assay [6] was > 100 µM in each case. Further, the TGI in assay [7], in [8], in assay [9], in [10], in assay [11] and in [12] was > 100 µM throughout. Besides, the TGI in assay [13] was > 100 µM.
`Cc1cccc2c(N)c3cccc(C(=O)NCC[N+](C)(C)Cc4c([N+](=O)[O-])ncn4C)c3nc12`: the TGI was 23.9 µM in [1]; > 90.2 µM in [2]; > 44.4 µM in assay [3]; > 100 µM in assay [4]; 35.6 µM in [5]; > 100 µM in assay [6]. In addition, the concentration for total growth inhibition (TGI) in assay [7] is > 82.1 µM; in assay [8], > 100 µM; in assay [9], > 100 µM; in assay [10], > 100 µM; in assay [11], > 100 µM; in assay [12], > 100 µM. This compound showed a TGI in assay [13] of 69.1 µM.
As to `CCNc1cc2c(cc1O)CC[C@@H]1[C@@H]2CC[C@]2(C)[C@@H](O)CC[C@@H]12`, the TGI in assay [1] was determined as 27.2 µM; in [2] it was 18.7 µM; in assay [3], 8.12 µM; in assay [4] it was 22.4 µM; in [5], 20.3 µM; in [6], 18.9 µM. The TGI in assay [7] stood at 24.9 µM; in assay [8] it was 2.14 µM; in assay [9] it was 21.6 µM; in assay [10] it was 63.5 µM; in assay [11], 20.6 µM; in assay [12] it was 41.2 µM. Besides, the concentration for total growth inhibition (TGI) in [13] came out at 24.3 µM. Further, in assay [2], the GI50 was 3.1 µM.
On to `Cc1ccc(/C=C2\CCC/C(=C\c3ccc(O)c(CN4CCCCC4)c3)C2=O)cc1`, for which the TGI was 33 µM in assay [1]; 7.65 µM in [2]; > 100 µM in [3]; 25.2 µM in assay [4]; 10.3 µM in assay [5]; > 37.7 µM in assay [6]. The TGI in assay [7] was 22.3 µM; in assay [8], 25.2 µM; in assay [9], 23.3 µM; in [10], > 100 µM; in [11], 27.1 µM; in assay [12], 8.62 µM. For the same compound, the concentration for total growth inhibition (TGI) in [13] stood at 23.3 µM.
For `Cc1cc(C)n(C2OC(CO)C(O)C(O)C2O)c(=S)c1C#N` (centres undefined), the TGI in assay [1], in assay [2], in assay [3], in assay [4], in assay [5] and in assay [6] was > 100 µM in each case. Also, the TGI in assay [7], in assay [8], in assay [9], in assay [10], in assay [11] and in [12] was > 100 µM throughout. Further, the TGI in assay [13] was > 100 µM.
Regarding `O=C1N[C@@H](c2c[nH]c3cc(Br)ccc23)C(=O)N[C@H]1c1c[nH]c2cc(Br)ccc12`, the TGI in assay [2] is > 100 µM; in assay [3] it was > 100 µM; in assay [4], > 100 µM; in [5], > 100 µM; in assay [6], > 100 µM; in [7], 80.2 µM. The TGI in assay [8], in assay [9], in [10], in assay [11], in assay [12] and in [13] was > 100 µM each time.

In general, TGI refers to the concentration giving total growth inhibition. Lower therefore signals greater sensitivity of the cells. In general, GI50 refers to the concentration that inhibits growth by half.
